Laboratory results published in US11685734B2, “ATM kinase inhibitors and compositions and methods of use thereof” (CHDI Foundation, Inc., priority 2019, dated 2023).

Key:
[1] = biological target: Recombinant, full length human FLAG-tagged ATM (Homo sapiens (Human), UniProt Q13315); assay: ATM ELISA for p53 S15 phosphorylation; format: biochemical; settings: 0.75 nM ATM, 25 nM p53, 10 μM ATP, 30 min at 20° C.; read-out: ATM BIO IC50
Method: ATM: Recombinant, full length human FLAG-tagged ATM activity (Eurofins 14-933) was measured in an ELISA for p53 S15 phosphorylation, in a 384 well V-bottom polypropylene plate (Greiner Bio One 781280). Reactions contained 0.75 nM ATM, 25 nM full length myc tagged p53 (Eurofins 23-034), 10 μM UltraPure ATP (Promega V915B) and serial dilutions of inhibitors (0.1% DMSO final) in 25 mM HEPES, pH 7.5. 5 mM MgCl2, 2.5 mM MnCl2, 0.006% Brij-35, 0.5% glycerol, 0.1 mg/ml BSA, 0.5 mM DTT and were allowed to proceed for 30 min at 20° C. 70 mM EDTA final terminated the kinase reactions. An aliquot of the terminated reaction (25 μl) was transferred to a 384-well, high binding microplate (Greiner Bio One 781061), precoated with anti-myc capture antibody overnight (Millipore 05-724) diluted in 1:1000 in PBS, then blocked with Odyssey blocking buffer (LI-COR Biosciences 92740000) for 60 min at 20° C. The terminated reaction was allowed to capture for 2 h at 20° C. Phosphorylation was measured using an antibody specific to p53 S15 phosphorylation (1:5000 Abcam ab38497), anti-rabbit HRP (1:1000 Cell Signalling Technology, 7074) and TMB (ab171522). Antibodies were diluted in Odyssey blocking buffer and incubated for 60 min at 20° C. Three washes with PBS containing 0.05% (v/v) Tween 20 (PBS-T) were performed between each incubation. The TMB reaction was stopped with an equal volume of 0.2 M sulfuric acid and absorbance read at 450 nm on the Perkin Elmer Envision within 30 min of terminating the reaction. […] IC50 values represent the mean from at least two independent experiments.

cellular ATM activity = cellular ATM activity (Homo sapiens (Human), UniProt Q13315); assay: Inhibition of cellular ATM activity: etoposide-stimulated KAP1 phosphorylation in U20S cells; format: cell-based; settings: 100 μM etoposide, 60 min, read-out: ATM CELL IC50
Chain of cellular ATM activity (Q13315 whole entry): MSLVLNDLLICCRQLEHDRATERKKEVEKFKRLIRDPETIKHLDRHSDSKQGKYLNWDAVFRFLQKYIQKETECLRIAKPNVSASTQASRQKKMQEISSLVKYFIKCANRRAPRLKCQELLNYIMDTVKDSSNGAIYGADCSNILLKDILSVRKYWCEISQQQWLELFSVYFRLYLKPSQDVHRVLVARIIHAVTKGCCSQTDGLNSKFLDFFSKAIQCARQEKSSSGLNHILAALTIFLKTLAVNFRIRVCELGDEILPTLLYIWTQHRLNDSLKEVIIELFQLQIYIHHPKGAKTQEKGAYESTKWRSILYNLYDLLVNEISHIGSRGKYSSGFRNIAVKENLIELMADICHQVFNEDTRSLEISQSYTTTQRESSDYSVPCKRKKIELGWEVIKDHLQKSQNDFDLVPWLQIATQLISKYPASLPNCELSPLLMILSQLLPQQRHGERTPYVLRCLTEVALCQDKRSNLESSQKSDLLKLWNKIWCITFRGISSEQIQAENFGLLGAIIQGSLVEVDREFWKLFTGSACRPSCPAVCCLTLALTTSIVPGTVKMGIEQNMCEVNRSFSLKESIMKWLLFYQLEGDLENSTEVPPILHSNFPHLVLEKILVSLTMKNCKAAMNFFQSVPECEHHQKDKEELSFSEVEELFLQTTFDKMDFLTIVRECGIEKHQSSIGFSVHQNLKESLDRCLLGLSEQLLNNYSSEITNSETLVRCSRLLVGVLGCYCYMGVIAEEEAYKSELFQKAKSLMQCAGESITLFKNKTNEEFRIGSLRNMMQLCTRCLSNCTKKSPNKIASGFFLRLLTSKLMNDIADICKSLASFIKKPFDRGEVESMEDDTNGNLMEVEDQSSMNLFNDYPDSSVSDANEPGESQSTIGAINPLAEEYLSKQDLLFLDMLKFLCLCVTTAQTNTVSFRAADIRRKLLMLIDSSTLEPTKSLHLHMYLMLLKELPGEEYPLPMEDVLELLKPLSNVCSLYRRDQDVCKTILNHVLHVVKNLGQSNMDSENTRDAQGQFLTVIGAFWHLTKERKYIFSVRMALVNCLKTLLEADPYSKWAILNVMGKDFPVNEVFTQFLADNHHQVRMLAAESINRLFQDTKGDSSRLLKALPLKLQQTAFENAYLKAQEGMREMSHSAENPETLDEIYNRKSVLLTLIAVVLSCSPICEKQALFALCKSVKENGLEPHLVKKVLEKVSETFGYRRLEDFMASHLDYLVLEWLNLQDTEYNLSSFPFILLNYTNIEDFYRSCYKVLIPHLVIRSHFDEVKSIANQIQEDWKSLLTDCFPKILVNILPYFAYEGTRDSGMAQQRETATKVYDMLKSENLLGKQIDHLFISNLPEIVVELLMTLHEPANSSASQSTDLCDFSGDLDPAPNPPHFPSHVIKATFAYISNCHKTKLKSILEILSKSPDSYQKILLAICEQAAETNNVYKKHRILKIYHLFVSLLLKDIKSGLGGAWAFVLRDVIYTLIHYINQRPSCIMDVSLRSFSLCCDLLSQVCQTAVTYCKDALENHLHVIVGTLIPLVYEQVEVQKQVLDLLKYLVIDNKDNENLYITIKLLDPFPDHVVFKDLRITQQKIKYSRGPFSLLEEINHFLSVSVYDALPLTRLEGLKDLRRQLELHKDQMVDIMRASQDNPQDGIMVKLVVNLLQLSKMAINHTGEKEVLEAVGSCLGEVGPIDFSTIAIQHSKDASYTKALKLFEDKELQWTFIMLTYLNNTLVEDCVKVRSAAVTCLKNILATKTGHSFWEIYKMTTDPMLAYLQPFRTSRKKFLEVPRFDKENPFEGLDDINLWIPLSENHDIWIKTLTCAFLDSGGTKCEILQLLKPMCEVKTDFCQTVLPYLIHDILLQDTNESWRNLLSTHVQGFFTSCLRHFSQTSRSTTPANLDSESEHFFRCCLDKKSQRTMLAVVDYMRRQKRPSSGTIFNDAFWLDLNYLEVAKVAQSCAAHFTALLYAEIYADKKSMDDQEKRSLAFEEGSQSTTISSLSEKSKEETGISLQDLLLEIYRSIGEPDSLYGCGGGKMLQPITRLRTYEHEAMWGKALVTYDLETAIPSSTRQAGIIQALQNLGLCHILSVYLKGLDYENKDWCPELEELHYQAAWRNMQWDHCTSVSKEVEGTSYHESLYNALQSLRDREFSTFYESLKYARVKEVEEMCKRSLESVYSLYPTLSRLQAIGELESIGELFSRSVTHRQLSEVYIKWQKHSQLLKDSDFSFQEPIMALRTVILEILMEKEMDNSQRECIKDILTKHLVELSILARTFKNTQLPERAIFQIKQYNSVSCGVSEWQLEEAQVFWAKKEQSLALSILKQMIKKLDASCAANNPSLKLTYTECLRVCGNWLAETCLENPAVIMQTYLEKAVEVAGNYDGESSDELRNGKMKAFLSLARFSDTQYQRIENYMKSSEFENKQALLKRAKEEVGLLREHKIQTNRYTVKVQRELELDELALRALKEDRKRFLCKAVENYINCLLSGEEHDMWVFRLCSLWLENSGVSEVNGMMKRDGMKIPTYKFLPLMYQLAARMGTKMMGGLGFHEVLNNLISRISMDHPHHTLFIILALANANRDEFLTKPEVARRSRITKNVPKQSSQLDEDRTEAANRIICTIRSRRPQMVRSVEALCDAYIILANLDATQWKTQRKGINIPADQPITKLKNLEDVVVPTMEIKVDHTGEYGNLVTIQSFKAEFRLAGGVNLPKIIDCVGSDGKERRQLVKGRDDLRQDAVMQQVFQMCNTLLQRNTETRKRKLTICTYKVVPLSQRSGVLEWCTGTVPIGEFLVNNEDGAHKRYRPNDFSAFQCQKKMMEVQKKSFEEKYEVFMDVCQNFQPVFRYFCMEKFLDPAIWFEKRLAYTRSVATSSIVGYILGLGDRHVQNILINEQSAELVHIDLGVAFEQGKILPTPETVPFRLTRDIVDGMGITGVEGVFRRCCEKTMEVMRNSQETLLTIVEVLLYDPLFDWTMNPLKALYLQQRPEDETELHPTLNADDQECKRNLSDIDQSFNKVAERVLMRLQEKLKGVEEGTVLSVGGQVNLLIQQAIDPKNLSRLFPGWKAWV
Method: Inhibition of cellular ATM activity was determined by changes in etoposide-stimulated KAP1 phosphorylation, based on the work of Guo et al. 2014.
Cryopreserved U20S cells were plated overnight at 6 k cells/well in black walled, clear bottomed 384 well plates (Greiner Bio One 781090). After overnight incubation (37 C, 5% CO2), cells were incubated with titrations of test compounds (0.3% DMSO final) in the presence of 100 μM etoposide (Sigma E1383) to stimulate ATM via induction of double stranded DNA breaks. After 60 min, cells were fixed using 100% cold methanol and incubated at −20° C. for 10 min. Fixed cells were washed with PBS containing 0.05% (v/v) Tween 20 (PBS-T) prior to a 60 minute blocking step in Odyssey blocking buffer (LI-COR Biosciences 92740000). Primary antibodies (1:1000 phosphorylated KAP1: Cell Signalling Technology 4127, 1:5000 total KAP1: Cell Signaling Technology 5868) were diluted in Odyssey blocking buffer and incubated overnight at 4° C., before addition of IRDye(R) conjugated secondary antibodies (LI-COR Biociences 926-32211, LI-COR Biosciences 926-68070) diluted 1:2000 in Odyssey blocking buffer for 60 min at room temperature and detection by LI-COR Odyssey (ImageStudio version 2.1.10, focus offset 4 mm, resolution 169 μm, lowest quality, intensities of 1 and 3 for 700 and 800 channels respectively). Immunoreactivity was quantified and the ratio of phosphorylated KAP1 calculated by dividing by the total KAP1 immunoreactivity. The percentage of inhibition was calculated for each concentration of compound using 100% (100 μM etoposide+30 μM KU-60019) and 0% effect controls (100 μM etoposide+DMSO). IC50 values represent the mean from at least two independent experiments.

Chain of Recombinant, full length human FLAG-tagged ATM (Q13315 whole entry): as above

O=c1cc(N2CCOCC2)cc(N2CCCCC[C@@H]2Cc2ccccn2)[nH]1 [Example 33, (R)-4-morpholino-6-(2-(pyridin-2-ylmethyl)azepan-1-yl)pyridin-2(1H)-one]
IC50 [1]: 92.4 nM
IC50 (cellular ATM activity): 1780 nM

COc1cccc(C[C@H]2CCCCCN2c2nc(N3CCOCC3)cc(=O)[nH]2)c1OC [Example 230]
IC50 [1]: 71.2 nM
IC50 (cellular ATM activity): 881 nM

C[C@@H]1CN(c2cc(=O)[nH]c(N3CC[C@@H](F)[C@@H]3Cc3ccccc3)n2)CCO1 [Example 319, 2-((2S,3R)-2-benzyl-3-fluoropyrrolidin-1-yl)-6-((R)-2-methylmorpholino)pyrimidin-4(3H)-one]
IC50 [1]: 5.3 nM
IC50 (cellular ATM activity): 538 nM

Cc1ccc(C[C@H]2CCCN2c2cc(N3CCOCC3)cc(=O)[nH]2)cc1 [Example 20, (R)-6-(2-(4-methylbenzyl)pyrrolidin-1-yl)-4-morpholinopyridin-2(1H)-one]
IC50 [1]: 54.1 nM
IC50 (cellular ATM activity): 2930 nM

O=c1cc(N2CCOCC2)cc(N2C[C@@H]3CC[C@@H](C3)[C@@H]2Cc2ccccc2)[nH]1 [Example 134]
IC50 [1]: 13.9 nM
IC50 (cellular ATM activity): 581 nM

O=c1cc(N2CCOCC2)cc(N2C[C@H]3CCC[C@H]3[C@@H]2Cc2ccccc2)[nH]1 [Example 123]
IC50 [1]: 21.2 nM
IC50 (cellular ATM activity): 861 nM

COc1ccc(OC)c(C[C@H]2CCCCCN2c2cc(N3CCOCC3)cc(=O)[nH]2)c1 [Example 66]
IC50 [1]: 18.7 nM
IC50 (cellular ATM activity): 603 nM

C[C@@H]1CN(c2cc(=O)[nH]c(N3CC[C@@H](C)[C@@H]3Cc3ccccc3)n2)CCO1 [Example 294, 2-((2S,3R)-2-benzyl-3-methylpyrrolidin-1-yl)-6-((R)-2-methylmorpholino)pyrimidin-4(3H)-one]
IC50 [1]: 20.9 nM
IC50 (cellular ATM activity): 423 nM

C[C@H]1CCN(c2nc(N3CCOCC3)cc(=O)[nH]2)[C@H]1Cc1ccccc1 [Example 261, 2-((2S,3S)-2-benzyl-3-methylpyrrolidin-1-yl)-6-morpholinopyrimidin-4(3H)-one]
IC50 [1]: 61.3 nM
IC50 (cellular ATM activity): 3050 nM

Cn1c(N2CCC[C@@H]2Cc2ccccc2)nc(N2CCOCC2)cc1=O [Example 176, (R)-2-(2-benzylpyrrolidin-1-yl)-3-methyl-6-morpholinopyrimidin-4(3H)-one]
IC50 [1]: 5.1 nM
IC50 (cellular ATM activity): 462 nM

O=c1cc(N2CCOCC2)nc(N2CCC(F)(F)[C@@H]2Cc2ccccc2)[nH]1 [Example 253, (S)-2-(2-benzyl-3,3-difluoropyrrolidin-1-yl)-6-morpholinopyrimidin-4(3H)-one]
IC50 [1]: 11.3 nM
IC50 (cellular ATM activity): 434 nM

COC[C@@H](C)Oc1ccc(C[C@H]2CCCCCN2c2cc(N3CCOCC3)cc(=O)[nH]2)cc1 [Example 151, 6-((R)-2-(4-(((R)-1-methoxypropan-2-yl)oxy)benzyl)azepan-1-yl)-4-morpholinopyridin-2(1H)-one]
IC50 [1]: 20.9 nM
IC50 (cellular ATM activity): 1020 nM

O=c1cc(N2CCOCC2)nc(N2CC3(CC3)C[C@@H]2Cc2ccccc2)[nH]1 [Example 262, (S)-2-(6-benzyl-5-azaspiro[2.4]heptan-5-yl)-6-morpholinopyrimidin-4(3H)-one]
IC50 [1]: 9.8 nM
IC50 (cellular ATM activity): 282 nM

O=c1cc(N2CCOCC2)cc(N2CC(F)(F)C[C@@H]2Cc2ccccc2)[nH]1 [Example 102, (S)-6-(2-benzyl-4,4-difluoropyrrolidin-1-yl)-4-morpholinopyridin-2(1H)-one]
IC50 [1]: 39.6 nM
IC50 (cellular ATM activity): 2220 nM

CC1C[C@H](Cc2ccccc2)N(c2cc(N3CCOCC3)cc(=O)[nH]2)C1 (single isomer, unassigned) [Example 101, 6-((2R,4R*)-2-benzyl-4-methylpyrrolidin-1-yl)-4-morpholinopyridin-2(1H)-one]
IC50 [1]: 17.1 nM
IC50 (cellular ATM activity): 1410 nM

O=c1cc(N2CCOCC2)nc(N2CC[C@H](O)[C@@H]2Cc2ccccc2)[nH]1 [Example 255, 2-((2S,3S)-2-benzyl-3-hydroxypyrrolidin-1-yl)-6-morpholinopyrimidin-4(3H)-one]
IC50 [1]: 70.9 nM
IC50 (cellular ATM activity): 1260 nM

COc1cc(F)ccc1C[C@H]1CCCCCN1c1cc(N2CCOCC2)cc(=O)[nH]1 [Example 50, (R)-6-(2-(4-fluoro-2-methoxybenzyl)azepan-1-yl)-4-morpholinopyridin-2(1H)-one]
IC50 [1]: 23 nM
IC50 (cellular ATM activity): 977 nM

Cn1c(N2CCC[C@@H]2Cc2ccccc2)cc(N2CCOCC2)cc1=O [Example 173, (R)-6-(2-benzylpyrrolidin-1-yl)-1-methyl-4-morpholinopyridin-2(1H)-one]
IC50 [1]: 37.8 nM
IC50 (cellular ATM activity): 1900 nM

COc1cccc(C[C@H]2CCCCCN2c2cc(N3CCOCC3)cc(=O)[nH]2)c1 [Example 23, (R)-6-(2-(3-methoxybenzyl)azepan-1-yl)-4-morpholinopyridin-2(1H)-one]
IC50 [1]: 6.5 nM
IC50 (cellular ATM activity): 527 nM

C[C@@H]1CN(c2cc(=O)[nH]c(N3CCCCC[C@@H]3Cc3ccccc3)n2)CCO1 [Example 270, 2-((R)-2-benzylazepan-1-yl)-6-((R)-2-methylmorpholino)pyrimidin-4(3H)-one]
IC50 [1]: 7.4 nM
IC50 (cellular ATM activity): 818 nM

CC1CCC[C@H](Cc2ccccc2)N(c2nc(N3CCOCC3)cc(=O)[nH]2)C1 (single isomer, unassigned) [Example 247]
IC50 [1]: 1.5 nM
IC50 (cellular ATM activity): 194 nM

C[C@@H]1CN(c2cc(=O)[nH]c(N3CCC[C@@H]3Cc3ccccc3)n2)CCO1 [Example 271, 2-((R)-2-benzylpyrrolidin-1-yl)-6-((R)-2-methylmorpholino)pyrimidin-4(3H)-one]
IC50 [1]: 24.1 nM
IC50 (cellular ATM activity): 2140 nM

COc1ccccc1C[C@H]1CC(F)(F)CCCN1c1cc(N2CCOCC2)cc(=O)[nH]1 [Example 62, (S)-6-(4,4-difluoro-2-(2-methoxybenzyl)azepan-1-yl)-4-morpholinopyridin-2(1H)-one]
IC50 [1]: 40.5 nM
IC50 (cellular ATM activity): 1250 nM

O=c1cc(N2CCOCC2)nc(N2CC[C@@H](F)[C@@H]2Cc2ccccc2)[nH]1 [Example 259, 2-((2S,3R)-2-benzyl-3-fluoropyrrolidin-1-yl)-6-morpholinopyrimidin-4(3H)-one]
IC50 [1]: 1.7 nM
IC50 (cellular ATM activity): 196 nM

O=c1cc(N2CCOCC2)nc(N2CCC[C@@H]2Cc2ccc(F)cc2)[nH]1 [Example 193]
IC50 [1]: 9.7 nM
IC50 (cellular ATM activity): 598 nM

Cc1ccc(C[C@H]2CCCN2c2nc(N3CCO[C@H](C)C3)cc(=O)[nH]2)cc1 [Example 274, 4-[(2R)-2-methylmorpholin-4-yl]-2-[(2R)-2-(p-tolylmethyl)pyrrolidin-1-yl]-1H-pyrimidin-6-one]
IC50 [1]: 32.7 nM
IC50 (cellular ATM activity): 410 nM

O=c1cc(N2CCOCC2)nc(N2C[C@H]3C[C@H]3[C@@H]2Cc2ccccc2)[nH]1 [Example 213]
IC50 [1]: 1.1 nM
IC50 (cellular ATM activity): 134 nM

O=c1cc(N2CCOCC2)nc(N2CCCCC[C@@H]2Cc2cccc3c2OCC3)[nH]1 [Example 225]
IC50 [1]: 3.9 nM
IC50 (cellular ATM activity): 260 nM

C[C@@H]1CN(c2cc(N3[C@@H]4CC[C@@H](C4)[C@@H]3Cc3ccccc3)[nH]c(=O)c2)CCO1 [Example 117, 6-((1R,3S,4S)-3-benzyl-2-azabicyclo[2.2.1]heptan-2-yl)-4-((R)-2-methylmorpholino) pyridin-2(1H)-one]
IC50 [1]: 72.8 nM
IC50 (cellular ATM activity): 684 nM

C[C@@H]1CN(c2cc(=O)[nH]c(N3CCCCC[C@@H]3Cc3ccccc3F)n2)CCO1 [Example 317, 2-((R)-2-(2-fluorobenzyl)azepan-1-yl)-6-((R)-2-methylmorpholino)pyrimidin-4(3H)-one]
IC50 [1]: 46.1 nM
IC50 (cellular ATM activity): 857 nM

COc1c(F)cccc1C[C@H]1CCCCCN1c1nc(N2CCOCC2)cc(=O)[nH]1 [Example 231]
IC50 [1]: 84 nM
IC50 (cellular ATM activity): 1090 nM

Cc1ccc(C[C@H]2CCCN2c2nc(N3CCOCC3)cc(=O)[nH]2)cc1 [Example 186]
IC50 [1]: 14.4 nM
IC50 (cellular ATM activity): 852 nM
